Reference: patent US9783536B2, “Nitrogen-containing heterocyclic compound or salt thereof” (FUJIFILM Corporation, priority 2013, dated 2017)
Structures can show the parent of a compound that is named as a salt. Where two headings read alike, the source gives them in different places.

How the values were obtained:
human PI3Kα protein = biological target: T1, human PI3Kα protein (Homo sapiens, UniProt P42336); test: PI3Kα enzyme assay (ADP-Glo); format: biochemical; settings: read-out: PI3Kα enzyme inhibitory activity
T1 construct: purchased Carna Biosciences, Inc; host or cells: baculovirus expression system
How it was run: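 Biotinylated human PI3Kα (baculovirus-expressed, 4.5 nmol/L) pre-incubated 15 min with compound in Tris-HCl pH 7.5, MgCl2, BSA; reaction 60 min at 25° C with 50 μmol/L PIP2 and 100 μmol/L ATP final. ADP quantified by ADP-Glo luminescence; IC50 calculated.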

[1] = biological target: T2, GST fusion human ERK2 protein (Homo sapiens, UniProt P28482); test: ERK2 enzyme assay (1); format: biochemical; settings: read-out: ERK2 enzyme inhibitory activity (1)
T2 construct: purchased Carna Biosciences, Inc; host or cells: E. coli expression system
Procedure: In an ERK2 enzyme assay, GLUTATHIONE S-TRANSFERASE (GST) FUSION HUMAN ERK2 PROTEIN (manufactured by Carna Biosciences, Inc.), which was produced by using an E. coli expression system, was used.
12 μL of a reaction liquid (2.5 nmol/L ERK2, 100 mmol/L Hepes, 10 mmol/L MgCl2, 1.5 mmol/L DTT, 0.003% Brij35, pH 7.5) including ERK2 protein and a test compound having a predetermined concentration was allowed to stand at room temperature for 15 minutes. Then, 3 μL of a mixture liquid of FL-PEPTIDE8 (5-FAM-IPTSPITTTYFFFKKK-COOH) (manufactured by Caliper Life Sciences), which is substrate peptide, and ATP (manufactured by Sigma-Aldrich Co. LLC.) was added thereto such that the final concentrations thereof became 4.25 μmol/L and 43.1 μmol/L, respectively, and an enzyme reaction was performed by allowing to stand at 25° C. for 120 minutes.
After the reaction, the enzyme reaction was stopped by adding 30 μL of a reaction stopper liquid (100 mmol/L HEPES, 11.2 mmol/L EDTA, 5.6% Brij35, pH 7.5) including a 0.5% COATING REAGENT 8 (trade name, manufactured by Perkin Elmer Inc.) thereto. Then, phosphorylated peptide and non-phosphorylated peptide were separated using LABCHIP EZ READER (trade name, manufactured by Caliper Life Sciences), and the porportion of the phosphorylated peptide was quantified.
The inhibitory activities of the compounds were evaluated using IC50 (50% inhibitory concentration). The IC50 was calculated using XLFIT (trade name, manufactured by ID Business Solutions).

[2] = 4.5 nmol/L PI3Kα, PIP2 50 μmol/L, ATP 100 μmol/L
[3] = 2.5 nmol/L ERK2, ATP 43.1 μmol/L

T2 sequence (P28482 whole entry, the tested form may be a part): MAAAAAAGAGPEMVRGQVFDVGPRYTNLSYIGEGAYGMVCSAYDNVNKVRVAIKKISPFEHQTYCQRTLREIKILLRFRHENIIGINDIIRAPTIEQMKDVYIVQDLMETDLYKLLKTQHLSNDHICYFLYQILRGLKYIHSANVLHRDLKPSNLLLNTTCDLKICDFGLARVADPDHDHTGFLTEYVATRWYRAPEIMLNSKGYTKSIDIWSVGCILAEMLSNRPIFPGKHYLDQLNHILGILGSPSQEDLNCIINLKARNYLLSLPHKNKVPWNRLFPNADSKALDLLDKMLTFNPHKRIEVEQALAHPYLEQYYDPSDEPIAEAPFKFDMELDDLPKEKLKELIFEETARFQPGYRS
T1 sequence (P42336 whole entry): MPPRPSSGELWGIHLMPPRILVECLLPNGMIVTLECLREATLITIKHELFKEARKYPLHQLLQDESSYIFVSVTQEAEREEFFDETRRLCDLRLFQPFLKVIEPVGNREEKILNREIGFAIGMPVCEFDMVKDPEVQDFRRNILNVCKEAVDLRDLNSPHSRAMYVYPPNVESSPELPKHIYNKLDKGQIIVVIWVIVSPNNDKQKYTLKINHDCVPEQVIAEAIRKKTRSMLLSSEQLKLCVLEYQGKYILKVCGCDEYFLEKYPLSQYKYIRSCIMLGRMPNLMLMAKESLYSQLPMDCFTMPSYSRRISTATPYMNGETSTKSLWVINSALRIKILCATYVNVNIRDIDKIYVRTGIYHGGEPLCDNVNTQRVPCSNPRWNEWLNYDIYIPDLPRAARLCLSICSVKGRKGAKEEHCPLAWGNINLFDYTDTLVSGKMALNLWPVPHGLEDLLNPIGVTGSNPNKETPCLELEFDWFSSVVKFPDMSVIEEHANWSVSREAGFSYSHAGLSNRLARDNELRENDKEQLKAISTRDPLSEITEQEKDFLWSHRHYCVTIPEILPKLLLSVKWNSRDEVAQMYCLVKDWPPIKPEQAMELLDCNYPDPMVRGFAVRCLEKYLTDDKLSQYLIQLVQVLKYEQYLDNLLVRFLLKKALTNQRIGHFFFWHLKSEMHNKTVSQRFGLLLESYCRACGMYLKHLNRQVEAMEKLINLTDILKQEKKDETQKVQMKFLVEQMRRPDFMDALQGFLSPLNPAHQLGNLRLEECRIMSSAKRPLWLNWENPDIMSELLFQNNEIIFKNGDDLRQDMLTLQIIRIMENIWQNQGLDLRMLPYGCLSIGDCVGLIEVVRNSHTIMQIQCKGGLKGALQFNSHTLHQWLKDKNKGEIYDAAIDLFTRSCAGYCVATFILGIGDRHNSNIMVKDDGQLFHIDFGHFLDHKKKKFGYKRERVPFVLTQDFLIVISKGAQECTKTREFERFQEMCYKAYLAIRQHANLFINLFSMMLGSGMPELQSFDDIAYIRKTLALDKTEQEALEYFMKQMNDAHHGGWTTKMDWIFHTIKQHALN
T1 sequence (P27986 whole entry partner): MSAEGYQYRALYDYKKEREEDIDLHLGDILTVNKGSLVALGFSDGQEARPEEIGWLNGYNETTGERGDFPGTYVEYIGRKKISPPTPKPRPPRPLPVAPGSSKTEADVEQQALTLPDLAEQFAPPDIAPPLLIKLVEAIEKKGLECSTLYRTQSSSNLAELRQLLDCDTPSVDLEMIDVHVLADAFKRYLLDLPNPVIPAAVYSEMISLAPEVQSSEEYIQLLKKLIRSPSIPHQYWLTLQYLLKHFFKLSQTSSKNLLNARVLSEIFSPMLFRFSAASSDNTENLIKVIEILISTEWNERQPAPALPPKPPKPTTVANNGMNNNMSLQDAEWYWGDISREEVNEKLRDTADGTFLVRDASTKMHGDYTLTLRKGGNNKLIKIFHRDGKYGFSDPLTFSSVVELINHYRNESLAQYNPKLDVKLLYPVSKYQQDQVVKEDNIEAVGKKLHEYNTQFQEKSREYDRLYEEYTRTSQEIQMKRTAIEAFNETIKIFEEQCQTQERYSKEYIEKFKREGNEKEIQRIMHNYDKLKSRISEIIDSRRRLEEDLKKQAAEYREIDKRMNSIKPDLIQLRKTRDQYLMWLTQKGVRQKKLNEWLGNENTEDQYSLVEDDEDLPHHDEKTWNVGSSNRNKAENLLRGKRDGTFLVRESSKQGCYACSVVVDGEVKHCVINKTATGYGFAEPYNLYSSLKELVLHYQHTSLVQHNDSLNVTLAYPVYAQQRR

Row | SMILES | IC50 (human PI3Kα protein; [2]) | IC50 [1, 3] | IC50 (human PI3Kα protein) | IC50 ([1]; ERK2 enzyme assay (1))
1 | c1ccc2c(Nc3cnc4ccc(Nc5nnc(C6CCCC6)s5)nc4c3)cncc2c1 [Example 0075] | < 1000 nM | 1000 to 10000 nM | – | –
2 | CN(C)CC(=O)N1CCN(c2cnc3ccc(Nc4nnc(C5CCCC5)s4)nc3c2)CC1 [Example 0059, 1-(4-(6-((5-cyclopentyl-1,3,4-thiadiazol-2-yl)amino)-1,5-naphthyridin-3-yl)piperazin-1-yl)-2-(dimethylamino)ethanone] | 1000 to 10000 nM | < 1000 nM | – | –
3 | COCCCNc1cnc2ccc(Nc3nnc(C4CCCC4)s3)nc2c1 [Example 0307] | – | – | < 1000 nM | < 1000 nM
4 | O=C(CO)N1CCN(c2cnc3ccc(Nc4nnc(C5CCCC5)s4)nc3c2)CC1 [Example 0058, 1-(4-(6-((5-cyclopentyl-1,3,4-thiadiazol-2-yl)amino)-1,5-naphthyridin-3-yl)piperazin-1-yl)-2-hydroxyethanone] | 1000 to 10000 nM | < 1000 nM | – | –
5 | CC(C)c1cncc(Nc2cnc3ccc(Nc4nnc(C5CCCC5)s4)nc3c2)c1 [Example 0099] | < 1000 nM | < 1000 nM | – | –
6 | COc1ccccc1-c1ccnc2ccc(Nc3nnc(C(C)C)s3)nc12 [Example 0270] | – | – | < 1000 nM | < 1000 nM
7 | c1nnc(Nc2ccc3ncc(N4CCOCC4)cc3n2)s1 [Example 0003, N-(7-morpholino-1,5-naphthyridin-2-yl)-1,3,4-thiadiazole-2-amine] | 1000 to 10000 nM | < 1000 nM | – | –
8 | CC(C)(C)OC(=O)N1CCN(CCn2cc(-c3cnc4ccc(Nc5nnc(S(=O)(=O)Nc6ccccc6)s5)nc4c3)cn2)CC1 [Example 0180, tert-Butyl 4-(2-(4-(6-((5-(N-phenylsulfamoyl)-1,3,4-thiadiazol-2-yl)amino)-1,5-naphthyridin-3-yl)-1H-pyrazol-1-yl)ethyl)piperazine-1-carboxylate] | 1000 to 10000 nM | < 1000 nM | – | –
9 | Cc1cnnc(Nc2ccc3ncc(-c4cn(C)nc4CO)cc3n2)c1 [Example 0397, (1-methyl-4-(6-((5-methylpyridazin-3-yl)amino)-1,5-naphthyridin-3-yl)-1H-pyrazol-3-yl)methanol] | – | – | < 1000 nM | < 1000 nM
10 | c1nc2ccc(Nc3nnc(C4CCCC4)s3)nc2cc1NC1CCOC1 (stereo not drawn) [Example 0319, N^2-(5-cyclopentyl-1,3,4-thiadiazol-2-yl)-N^7-(tetrahydrofuran-3-yl)-1,5-naphthyridine-2,7-diamine] | – | – | < 1000 nM | < 1000 nM
11 | CC(C)c1nnc(Nc2ccc3nccc(-c4cccnc4)c3n2)s1 [Example 0268, 5-isopropyl-N-(8-(pyridin-3-yl)-1,5-naphthyridin-2-yl)-1,3,4-thiadiazole-2-amine] | – | – | < 1000 nM | < 1000 nM
12 | Cn1cc(-c2cnc3ccc(Nc4nnc[nH]4)nc3c2)cn1 [Example 0300, 7-(1-Methyl-1H-pyrazol-4-yl)-N-(4H-1,2,4-triazol-3-yl)-1,5-naphthyridine-2-amine] | – | – | 1000 to 10000 nM | < 1000 nM
13 | CN1CCN(CCCn2cc(-c3cnc4ccc(Nc5nnc(C6CCCC6)s5)nc4c3)cn2)CC1 [Example 0197, 5-cyclopentyl-N-(7-(1-(3-(4-methylpiperazin-1-yl)propyl)-1H-pyrazol-4-yl)-1,5-naphthyridin-2-yl)-1,3,4-thiadiazole-2-amine] | < 1000 nM | < 1000 nM | – | –
14 | c1cc(N2CCOCC2)ncc1Nc1cnc2ccc(Nc3nnc(C4CCCC4)s3)nc2c1 [Example 0066] | < 1000 nM | < 1000 nM | – | –
15 | Cc1cnccc1-c1cnc2ccc(Nc3cc(C(C)C)cnn3)nc2c1 [Example 0361] | – | – | 1000 to 10000 nM | < 1000 nM
16 | Cn1cc(Nc2cnc3ccc(Nc4nnc(C5CCCC5)s4)nc3c2)cn1 [Example 0194] | 1000 to 10000 nM | < 1000 nM | – | –
17 | CC(C)c1cnnc(Nc2ccc3ncc(Nc4cncnc4)cc3n2)c1 [Example 0387, N^2-(5-isopropylpyridazin-3-yl)-N^7-(pyrimidin-5-yl)-1,5-naphthyridine-2,7-diamine] | – | – | < 1000 nM | < 1000 nM

Row | SMILES | IC50 (human PI3Kα protein; [2]) | IC50 [1, 3] | IC50 (human PI3Kα protein) | IC50 ([1]; ERK2 enzyme assay (1))
18 | CC(C)c1nnc(Nc2ccc3nccc(Nc4ccncc4)c3n2)s1 [Example 0004, N^2-(5-isopropyl-1,3,4-thiadiazol-2-yl)-N^8-(pyridin-4-yl)-1,5-naphthyridine-2,8-diamine] | < 1000 nM | < 1000 nM | – | –
19 | c1n[nH]cc1Nc1cnc2ccc(Nc3nnc(C4CCCO4)s3)nc2c1 (stereo not drawn) [Example 0228] | – | – | < 1000 nM | < 1000 nM
20 | Cn1cc(-c2cnc3ccc(Nc4ccc(NS(C)(=O)=O)nn4)nc3c2)cn1 [Example 0409] | – | – | < 1000 nM | 1000 to 10000 nM
21 | c1cnn(-c2cncc(Nc3cnc4ccc(Nc5nnc(C6CCCC6)s5)nc4c3)c2)c1 [Example 0073] | < 1000 nM | < 1000 nM | – | –
22 | CC(=O)OCC(C)(C)c1cnnc(Nc2ccc3ncc(-c4cnn(CCCN5CCCC5)c4)cc3n2)c1 [Example 0404, 2-Methyl-2-(6-((7-(1-(3-(pyrrolidin-1-yl)propyl)-1H-pyrazol-4-yl)-1,5-naphthyridin-2-yl)amino)pyridazin-4-yl)propyl acetate] | – | – | < 1000 nM | < 1000 nM
23 | CC(C)c1nnc(Nc2ccc3nccc(-c4cc[nH]c(=O)c4)c3n2)s1 [Example 0289, 4-(6-((5-isopropyl-1,3,4-thiadiazol-2-yl)amino)-1,5-naphthyridin-4-yl)pyridin-2(1H)-one] | – | – | < 1000 nM | 1000 to 10000 nM
24 | CC(C)c1nnc(Nc2ccc3ncc(-c4cn(C)nc4-c4cnn(C)c4)cc3n2)s1 [Example 0477] | – | – | < 1000 nM | < 1000 nM
25 | Cc1nnc(Nc2ccc3ncc(Nc4cnn(C)c4)cc3n2)s1 [Example 0184] | 1000 to 10000 nM | < 1000 nM | – | –
26 | c1ccc(Nc2cnc3ccc(Nc4nnc(C5CCCC5)s4)nc3c2)nc1 [Example 0206] | – | – | 10000 to 50000 nM | < 1000 nM
27 | c1ncc(OCCN2CCOCC2)cc1Nc1cnc2ccc(Nc3nnc(C4CCCC4)s3)nc2c1 [Example 0082] | < 1000 nM | < 1000 nM | – | –
28 | Oc1cnc2ccc(Nc3nnc(C4CCCC4)s3)nc2c1 [Example 0040, 6-((5-cyclopentyl-1,3,4-thiadiazol-2-yl)amino)-1,5-naphthyridin-3-ol hydrochloride] | 10000 to 50000 nM | < 1000 nM | – | –
29 | CC(=O)N1CCC(c2cnc3ccc(Nc4nnc(C5CCCC5)s4)nc3c2)CC1 [Example 0335, 1-(4-(6-((5-Cyclopentyl-1,3,4-thiadiazol-2-yl)amino)-1,5-naphthyridin-3-yl)piperidin-1-yl)ethanone] | – | – | 10000 to 50000 nM | < 1000 nM
30 | COc1ccc(-c2cnc3ccc(Nc4nc(C)cs4)nc3c2)cc1OC [Example 0024, N-(7-(3,4-dimethoxyphenyl)-1,5-naphthyridin-2-yl)-4-methylthiazole-2-amine] | 1000 to 10000 nM | 10000 to 50000 nM | – | –
31 | COC1CCCN(CCCn2cc(-c3cnc4ccc(Nc5cc(C(C)C)cnn5)nc4c3)cn2)C1 (stereo not drawn) [Example 0378, N-(5-isopropylpyridazin-3-yl)-7-(1-(3-(3-methoxypiperidin-1-yl)propyl)-1H-pyrazol-4-yl)-1,5-naphthyridine-2-amine] | – | – | < 1000 nM | < 1000 nM
32 | c1ncc(N2CCCCC2)cc1Nc1cnc2ccc(Nc3nnc(C4CCCC4)s3)nc2c1 [Example 0101] | < 1000 nM | < 1000 nM | – | –
33 | CN1CCN(c2cnc3ccc(Nc4nnc(C5CCCC5)s4)nc3c2)CC1 [Example 0052] | 1000 to 10000 nM | < 1000 nM | – | –
